Tests used:
Assay in all cases: Glycosidase inhibition, spectrophotometric p-nitrophenyl glycoside assay
[1] = target: α-Glucosidase from Saccharomyces cerevisiae (Saccharomyces cerevisiae, UniProt P53341); details: pH 7.2, read-out: Percentage inhibition (%) at 1 mM concentration of the inhibitor
[2] = test system: β-Glucosidase from almonds; details: 1 mM inhibitor; 37 °C, 30 min; NI = no inhibition up to 20 mM
[3] = target: T1, α-Mannosidase from jack bean (Canavalia ensiformis, UniProt C0HJB3); details: for inhibition at 1000 µM: pH 4.5, read-out: Percentage inhibition (%) at 1 mM concentration of the inhibitor
T1 sequence (C0HJB3 1-981): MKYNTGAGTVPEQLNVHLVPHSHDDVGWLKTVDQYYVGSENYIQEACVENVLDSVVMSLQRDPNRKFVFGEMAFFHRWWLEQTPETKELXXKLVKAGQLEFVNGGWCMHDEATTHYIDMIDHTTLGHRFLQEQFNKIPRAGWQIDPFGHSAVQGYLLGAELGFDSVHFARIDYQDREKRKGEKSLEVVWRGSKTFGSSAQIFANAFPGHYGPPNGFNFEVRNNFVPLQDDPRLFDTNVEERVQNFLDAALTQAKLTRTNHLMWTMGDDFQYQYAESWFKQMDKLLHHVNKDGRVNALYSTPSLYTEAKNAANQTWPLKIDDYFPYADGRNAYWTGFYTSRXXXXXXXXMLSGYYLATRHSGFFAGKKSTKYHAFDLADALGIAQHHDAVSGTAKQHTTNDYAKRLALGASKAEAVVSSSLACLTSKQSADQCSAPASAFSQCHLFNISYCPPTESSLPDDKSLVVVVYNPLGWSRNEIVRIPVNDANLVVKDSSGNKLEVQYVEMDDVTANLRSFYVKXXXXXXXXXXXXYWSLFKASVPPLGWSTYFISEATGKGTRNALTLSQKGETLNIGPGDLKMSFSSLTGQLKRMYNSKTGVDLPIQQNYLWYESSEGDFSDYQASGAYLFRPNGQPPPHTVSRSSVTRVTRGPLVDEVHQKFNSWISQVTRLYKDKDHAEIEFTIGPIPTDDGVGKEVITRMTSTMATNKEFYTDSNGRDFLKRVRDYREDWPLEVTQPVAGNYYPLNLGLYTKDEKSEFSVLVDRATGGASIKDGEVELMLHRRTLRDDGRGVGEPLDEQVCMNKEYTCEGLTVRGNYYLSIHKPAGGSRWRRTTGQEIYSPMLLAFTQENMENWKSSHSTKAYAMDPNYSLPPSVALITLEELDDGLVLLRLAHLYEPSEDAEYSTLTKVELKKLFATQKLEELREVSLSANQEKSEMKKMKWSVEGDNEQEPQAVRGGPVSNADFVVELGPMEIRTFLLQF

[4] = test system: β-Mannosidase from Helix pomatia
[5] = target: T2, β-Galactosidase from Aspergillus oryzae (Aspergillus oryzae, UniProt Q2UCU3)
T2 sequence (Q2UCU3 19-1005): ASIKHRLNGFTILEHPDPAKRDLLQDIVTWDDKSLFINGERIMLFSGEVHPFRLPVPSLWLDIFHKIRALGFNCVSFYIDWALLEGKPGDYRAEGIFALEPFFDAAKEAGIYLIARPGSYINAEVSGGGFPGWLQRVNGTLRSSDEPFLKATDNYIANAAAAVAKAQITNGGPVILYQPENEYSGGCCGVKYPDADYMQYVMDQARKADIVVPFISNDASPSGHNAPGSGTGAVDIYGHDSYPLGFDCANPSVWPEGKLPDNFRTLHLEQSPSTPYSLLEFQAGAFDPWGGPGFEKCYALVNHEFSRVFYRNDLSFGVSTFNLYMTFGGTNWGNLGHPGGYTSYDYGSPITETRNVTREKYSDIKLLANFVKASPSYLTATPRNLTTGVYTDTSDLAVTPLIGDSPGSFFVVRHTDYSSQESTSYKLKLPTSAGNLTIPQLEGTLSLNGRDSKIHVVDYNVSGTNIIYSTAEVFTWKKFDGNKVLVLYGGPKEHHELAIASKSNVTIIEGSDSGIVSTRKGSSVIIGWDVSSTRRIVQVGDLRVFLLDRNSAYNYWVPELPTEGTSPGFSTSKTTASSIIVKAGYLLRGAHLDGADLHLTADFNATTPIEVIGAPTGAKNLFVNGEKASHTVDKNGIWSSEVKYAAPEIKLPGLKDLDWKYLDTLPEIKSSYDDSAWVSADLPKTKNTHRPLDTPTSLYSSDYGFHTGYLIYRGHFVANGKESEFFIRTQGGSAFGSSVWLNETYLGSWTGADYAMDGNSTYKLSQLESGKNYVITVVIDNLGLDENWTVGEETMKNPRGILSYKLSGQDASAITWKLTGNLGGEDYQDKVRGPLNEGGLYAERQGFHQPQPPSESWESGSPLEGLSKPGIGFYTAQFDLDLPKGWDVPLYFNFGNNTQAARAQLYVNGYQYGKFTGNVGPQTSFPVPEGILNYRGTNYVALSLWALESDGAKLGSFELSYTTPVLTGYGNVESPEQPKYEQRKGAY

[6] = target: α-Galactosidase from green coffee beans (Coffea arabica, UniProt Q42656)
α-Galactosidase from green coffee beans, sequence (Q42656 16-378): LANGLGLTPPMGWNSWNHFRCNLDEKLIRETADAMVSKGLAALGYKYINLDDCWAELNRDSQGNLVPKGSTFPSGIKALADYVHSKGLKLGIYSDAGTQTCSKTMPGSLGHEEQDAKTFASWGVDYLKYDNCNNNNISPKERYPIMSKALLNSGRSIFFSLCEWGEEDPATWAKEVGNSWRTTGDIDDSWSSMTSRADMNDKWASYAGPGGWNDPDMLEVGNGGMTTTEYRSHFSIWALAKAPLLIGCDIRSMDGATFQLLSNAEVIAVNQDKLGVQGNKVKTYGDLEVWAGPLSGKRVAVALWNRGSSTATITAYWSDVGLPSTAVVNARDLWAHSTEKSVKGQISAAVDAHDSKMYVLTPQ

α-Glucosidase from Saccharomyces cerevisiae, sequence (P53341 whole entry): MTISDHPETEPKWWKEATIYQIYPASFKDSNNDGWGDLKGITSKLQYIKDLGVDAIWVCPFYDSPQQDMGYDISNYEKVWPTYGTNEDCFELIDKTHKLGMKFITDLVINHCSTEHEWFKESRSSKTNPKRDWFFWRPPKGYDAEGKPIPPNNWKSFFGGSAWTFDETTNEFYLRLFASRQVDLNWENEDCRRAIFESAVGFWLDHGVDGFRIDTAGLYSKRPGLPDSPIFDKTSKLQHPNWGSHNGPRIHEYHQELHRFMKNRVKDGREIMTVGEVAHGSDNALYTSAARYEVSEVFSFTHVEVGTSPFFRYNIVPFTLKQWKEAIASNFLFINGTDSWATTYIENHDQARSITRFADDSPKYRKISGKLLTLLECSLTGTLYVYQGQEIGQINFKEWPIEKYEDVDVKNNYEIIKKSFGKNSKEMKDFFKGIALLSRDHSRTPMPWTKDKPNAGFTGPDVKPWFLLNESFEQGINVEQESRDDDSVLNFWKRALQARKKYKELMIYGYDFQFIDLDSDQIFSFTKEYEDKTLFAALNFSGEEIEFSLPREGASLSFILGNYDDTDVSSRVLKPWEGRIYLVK

SMILES | inhibition at 1000 µM [1] | Percentage inhibition (%) at 1 mM concentration of the inhibitor [2] | inhibition as stated in text [3] | inhibition at 1000 µM [3] | inhibition as stated in text [4] | inhibition as stated in text [5] | inhibition at 1000 µM ([5]; pH 7.2, read-out: Percentage inhibition (%) at 1 mM concentration of the inhibitor) | inhibition as stated in text [6] | inhibition at 1000 µM ([6]; pH 6.8, read-out: Percentage inhibition (%) at 1 mM concentration of the inhibitor)
OCC1=CC[C@H](O)[C@@H](O)[C@@H](O)[C@@H]1O [Compound 5, (1S,2R,3S,4R)-5-(Hydroxymethyl)cyclohept-5-ene-1,2,3,4-tetraol] | 3.3% | – | inhibited | 12.5% | – | – | – | – | –
O=C1CC=C(CO)[C@@H](O)[C@H](O)[C@@H]1O [Compound 4, (5R,6S,7S)-5,6,7-Trihydroxy-4-(hydroxymethyl)cyclohept-3-enone] | 41.1% | 12.3% | – | – | could inhibit | – | – | – | –
OCC1=CC[C@@H](O)[C@@H](O)[C@@H](O)[C@@H]1O [Compound 6, (1R,2R,3S,4R)-5-(Hydroxymethyl)cyclohept-5-ene-1,2,3,4-tetraol] | 22.1% | 3.2% | – | – | – | – | – | inhibited | 41.7%

The remaining lines, values ahead:

inhibition at 1000 µM [1] | Percentage inhibition (%) at 1 mM concentration of the inhibitor [2] | inhibition as stated in text [3] | inhibition at 1000 µM [3] | inhibition as stated in text [4] | inhibition as stated in text [5] | inhibition at 1000 µM ([5]; pH 7.2, read-out: Percentage inhibition (%) at 1 mM concentration of the inhibitor) | inhibition as stated in text [6] | inhibition at 1000 µM ([6]; pH 6.8, read-out: Percentage inhibition (%) at 1 mM concentration of the inhibitor) | SMILES
19.5% | 14.1% | inhibited | 10.6% | – | – | – | – | – | C[C@H]1CC[C@@H](O)[C@@H](O)[C@@H](O)[C@@H]1O [Compound 15, (1R,2R,3S,4R,5S)-5-Methylcycloheptane-1,2,3,4-tetraol]
– | 29.8% | inhibited | 35.1% | – | inhibits | 12.8% | – | – | C[C@@H]1CC[C@@H](O)[C@@H](O)[C@@H](O)[C@@H]1O [Compound 16, (1R,2R,3S,4R,5R)-5-Methylcycloheptane-1,2,3,4-tetraol]
